Experimental data as given in patent US20050239873A1 (priority 1999, published 2005).

Key:
[1] = tested on: RPMI-8226; experiment: Propidium iodide exclusion / flow cytometry cytotoxicity; assay type: cell-based, human; settings: for mode of induced cell death: annexin V, sub-G1 DNA content, mitochondrial membrane potential
Experimental: Cell survival was assayed by exclusion of propidium iodide (PI; 10 μg/ml) by unfixed cells. Annexin V-FITC (Pharmingen) or 3, 3′-dihexyloxacarbocyanine iodide (DiOC6(3); Molecular Probes) staining was analyzed together with PI to discriminate early apoptotic cells. Apoptotic cells were also measured as sub-G1 events among ethanol-fixed cells stained with 10 μg/ml PI. All cell samples were analyzed using a benchtop FACSCalibur™ (Becton Dickinson, San Jose, Calif.). Flow data were analyzed using MultiCycle AV software (Phoenix Flow Systems). For intracellular pH measurements, cell pellets were washed once and resuspended in 2 ml of HEPES-buffered medium (no phenol red and no serum). Carboxy-SNARF-1-AM (Molecular Probes, 1 mM stock in DMSO, stored at −20° C.) was added to a final concentration of 10 μM, and the cells were incubated for 30 min at 37° C. Following incubation with SNARF, cells were sedimented and the pellets were held on ice. Immediately before analysis, pellets were resuspended in […] (HBSS; experimental buffer) or high-[K+] buffer containing nigericin (calibration samples).

[2] = tested on: plasma proteins; experiment: Binding to plasma proteins (ultrafiltration); assay type: in vitro ADME, mouse; settings: presence of NaF+EDTA, 1000 ng/ml
Experimental: Solutions of 2-OMe antimycin A3 were diluted with plasma (dog or human) containing NaF+EDTA to final concentrations of 1.0 or 0.2 μg/ml. Controls were diluted with water to the same final concentrations. These preparations were incubated at 37° C. for 20 min, at which time portions were taken and placed in the sample reservoirs of Amicon Centrifree® ultrafiltration systems (Millipore Co., Bedford, Mass.). At 37° C., the filter systems were centrifuged until the reservoirs were dry. From each filtrate, portions were taken for analysis by HPLC. The amounts present were designated as “free drug” (F). The concentrations of the unfiltered solutions were also determined by triplicate analyses. This amount represented the “total drug” concentration (T). The percentage of 2-OMe antimycin A3 bound to plasma proteins was calculated by the following formula: % bound=((T−F)/T)×100

[3] = Stability in plasma; assay type: in vitro ADME, dog; settings: 37° C., 60 min; for stability: presence of NaF/EDTA
Experimental: For analysis of samples, two volumes of cold methanol-acetonitrile (50:50, v/v) were added to portions of plasma, culture medium, or cell extract. The preparations were mixed and then centrifuged to obtain clear supernatants, which were dried at room temperature by compressed air. The residues were dissolved in the mobile phase, and a portion was injected onto the HPLC column.
The HPLC equipment consisted of a Hewlett Packard 1050 ChemStation with a fluorescence detector (Agilent 100 series). […] The mobile phase was methanol:ammonium acetate buffer (87:13 v/v; 0.2 M; pH 5.8, adjusted with HCl). The flow rate was 1 ml/min. The column elute was monitored fluorometrically at an excitation wavelength of 232 nm and an emission wavelength of 418 nm. The amounts of test compounds present in samples were determined from the peak areas.
Samples of mouse, rat, dog, and human plasma were incubated at 37° C. with and without addition of NaF (2.5 mg/ml) and EDTA (1 mg/ml). To these preparations, 2-OMe antimycin A1, 2-OMe antimcyin A2, 2-OMe antimycin A3, or 2-OMe antimycin A5, dissolved in methanol, was added to final concentrations of 500 ng/ml. Portions of plasma, taken at selected times after addition of the 2-OMe antimycin analog, were extracted and analyzed.

[4] = tested on: TABX2S cells (over-expressing Bcl-xL); experiment: cells
Excerpt: Briefly, a DNA fragment encoding the full-length mouse BCl-xL cDNA was isolated from the plasmid PBS.BCL-xL (Tzung et al., Am. J. Path. 150:1985-1995, 1997, incorporated herein by reference in its entirety) by digestion with the restriction endonuclease EcoRI. This EcoRI fragment was cloned into the EcoRI site of the mammalian expression vector pSFFV (Fuhlbrigge et al., Proc. Nat. Acad. Sci. USA 85:5649-5653, 1988) in both sense and antisense orientations, to form expression plasmids pSFFV.Bcl-xL(sense) or pSFFV.Bcl-xL(antisense), respectively. The tumorigenic murine hepatocyte cell line TAMH was transfected by lipofection (Lipofectamine, Life Technologies, Rockville, Md., according to the manufacturer's recommendations) with the plasmids pSFFV.neo (the control), pSFFV.Bcl-xL(sense) or pSFFV.Bcl-xL(antisense). […] Transfectants were selected for the acquisition of neomycin resistance by growing cells in the presence of 750 μg/ml of G418. Bulk transfectants were cloned by limiting dilution and individual clones were screened by immunoblot analysis to determine the level of BCl-xL protein expression as described below.
Selected transfectants were then tested for whole cell sensitivity to several apoptotic agents. Transfected cells were cultured to reach approximately 80% confluency prior to plating an equal number of cells from selected clones on 12-well tissue culture plates. The transplanted cells were treated with the following apoptotic agents: 5 μM doxorubicin for 48 hours; 5 μM cisplatin for 48 hours; or with 200 U/ml tumor necrosis factor (TNF) plus 1 μg/ml actinomycin D for 18 hours. Cell viability was determined by trypan blue dye exclusion. The percentage of viable cells was calculated by the number of viable cells (treated with a particular apoptogenic agent) divided by the number in the control group (untreated).
TABX2S cells and TABX1A cells were also examined for the effects of various mitochondrial inhibitors. […] Azide was diluted from an aqueous stock solution. […] Controls received an equivalent concentration of diluent. At various time points after drug treatment, cells were trypsinized, and cell viability was determined by trypan blue dye exclusion. The number of viable cells were counted and normalized to control group (i.e., % control=number of viable cells (treated group)/number of viable cells (control group)×100).

[5] = target: Bcl-xLΔC20 (Homo sapiens, UniProt Q07817); experiment: Calcein leakage from large unilamellar vesicles (pore formation); assay type: biochemical
Experimental: In this example the ability of antimycin A to prevent pore formation by BCl-xL was tested. […] Recombinant human BCl-xL lacking the C-terminal 20-residue membrane anchor sequence, Bcl-xLΔC20, forms pores in large unilamellar vesicles. A reporter, calcein, can leak out of the vesicles through these pores.
Briefly, a dry film of lipid was resuspended in an aqueous solution containing 40 mM calcein (Molecular Probes, Eugene, Oreg.), 25 mM KCl and 10 mM HEPES (pH 7.0). After 5 freeze-thaw cycles, the lipidic solution was extruded through 2 Nucleopore filters, 0.1 μm pore diameter. […] The size of the vesicle suspension was measured by a Coulter N4 Plus-Sizer to confirm that the mean diameter of the vesicle sample was close to the expected size (100 nm). The osmolalities of all solutions were measured in a cryoscopic osmometer (Wescor Inc., Logan, Utah) and adjusted to 0.21 Osmol/kg by the addition of sodium chloride, as necessary.
Calcein leakage was determined by adding 2-4 μg of purified Bcl-xLΔC20 (5 μg/ml, 161 nM) to a solution of 100 mM NaCl, 10 mM HEPES (pH 5.0) containing the large unilamellar vesicles (50 μM final lipid concentration) described above. Changes in the fluorescence intensity were measured in an Aminco-SLM spectrofluorimeter. […] The 100% fluorescence level for leakage was obtained by detergent lysis (0.1% Triton X-100) of the vesicles containing entrapped calcein.

[6] = tested on: mitochondria from TABX2S cells (high levels of Bcl-xL); experiment: JC-1 membrane potential of isolated mitochondria; set-up: species or system murine
Experimental: Isolated mitochondria were loaded with JC-1 prior to treatment, and mitochondrial labeling was determined using FACS. […] Antimycin A-treated mitochondria with high levels of Bcl-xL had lower levels of JC-1 staining than parallel samples treated with CCCP. Uncoupled mitochondria still retain a significant Donnan potential because of trapped anionic species and it is likely that antimycin-induced PT and/or swelling of mitochondria led to a further reduction of this residual potential.
As observed for the parent compound, antimycin A3, mitochondria with normal levels of BCl-xL expression were not affected by the 2-methoxy analog.

Sequence of Bcl-xLΔC20 (Q07817 1-213 limits assumed, stated change not applied): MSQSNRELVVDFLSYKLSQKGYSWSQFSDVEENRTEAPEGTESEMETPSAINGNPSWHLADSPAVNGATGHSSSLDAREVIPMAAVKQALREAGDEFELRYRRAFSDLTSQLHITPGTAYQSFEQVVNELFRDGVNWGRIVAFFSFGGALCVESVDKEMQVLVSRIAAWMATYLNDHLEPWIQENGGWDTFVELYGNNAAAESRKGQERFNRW

2-methoxy antimycin A [2-OMeA]
cell killing measured as PI uptake, compared with antimycin A ([1]; 5 and 20 μg/ml, three cell lines): similar | mode of induced cell death [1]: apoptosis

CCCCCC[C@H]1C(=O)O[C@H](C)[C@H](NC(=O)c2cccc(NC=O)c2OC)C(=O)O[C@@H](C)[C@@H]1OC(=O)CC(C)C [2-OMeA1, 2-methoxy antimycin A1]
Protein binding, Mouse [2]: 99.0% | added amount remaining ([3]; absence of NaF/EDTA, 500 ng/ml): 61% | stability [3]: unstable

antimycin A
survival ([4]; 2 μg/ml, supplemented with fructose, six hours): 33% | time until cell death readily apparent ([4]; after addition to the cell culture): ≤ 2 h | time of treatment at which cell death was demonstrated [1]: ≤ 8 h | sensitivity (PI exclusion) ([1]; 5 to about 20 μg/ml): sensitive | mode of induced cell death [1]: apoptosis | Bcl-xL pore-forming activity (calcein leakage) ([5]; 12 μM): completely blocked | decrease in ΔΨm (JC-1) ([6]; vs control mitochondria (TABX1A)): much greater decrease in ΔΨm

CCCC[C@H]1C(=O)OC(C)[C@H](NC(=O)c2cccc(NC=O)c2OC)C(=O)O[C@@H](C)C1OC(=O)CC(C)C (some centres unmarked) [2-OMeA3, Antimycin A3 methyl ether]
cytotoxicity for cells over-expressing Bcl-xL vs control cells ([4]; TABX2S vs TAMH.neo and TABX1A): selective cytotoxicity | Protein binding, Mouse [2]: 99.1% | inhibition of Bcl-xL pore formation, liposome permeability assay [5]: almost as well as antimycin A3 | stability [3]: largely stable | mitochondrial depolarization (JC-1) ([6]; 2 μg/ml): strongly depolarized
